Key:
[1] = biological target: T1, KRAS-G12D protein (Homo sapiens, UniProt P01116, G12D); assay: KRAS-G12D protein degradation study in Aspc-1 cells (western blot); type: cell-based; settings: for inhibition at 1 µM / inhibition at 0.05 µM / inhibition at 0.1 µM: ASPC1, 24 h, 24 hours; for inhibition at 1 µM: Aspc-1 cells treated with 1 μM compound; for inhibition at 1 µM / inhibition at 0.1 µM: read-out: Rate of protein degradation (KRAS^G12D); for inhibition at 0.05 µM: Aspc-1 cells treated with 50 nM compound, read-out: Rate of degradation (KRAS^G12D); for DC50: Aspc-1 cells, read-out: DC50 of test compound-induced KRAS^G12D protein degradation; for inhibition at 0.1 µM: Aspc-1 cells treated with 0.1 μM compound
T1 construct: host or cells: Aspc-1 cells
T1 sequence (P01116 1-188 isoform P01116-2 G12D): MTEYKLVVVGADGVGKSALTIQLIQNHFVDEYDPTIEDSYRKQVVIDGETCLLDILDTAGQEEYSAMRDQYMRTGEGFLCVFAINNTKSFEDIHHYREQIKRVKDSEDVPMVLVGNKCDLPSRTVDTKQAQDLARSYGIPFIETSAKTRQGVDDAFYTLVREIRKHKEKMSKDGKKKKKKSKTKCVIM
Summary of the method: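 AsPC-1 cells were treated with compound for 24 h at 37° C (0.1% DMSO final), then lysed; KRAS levels measured by western blot. Degradation % = 1 − (KRAS/GAPDH, compound) ÷ (KRAS/GAPDH, DMSO), ×100; DC50 derived from concentration curves.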

[2] = test system: Aspc-1 cells; assay: Cell proliferation study in Aspc-1 cells (Cell Titer Glo); type: cell-based; settings: Homo sapiens, ASPC1, 72 hours, read-out: IC50, inhibitory effect on cellular proliferation
Description: Aspc-1 (Cobioer, CBP60546) cells were grown in RPMI 1640 (Gibco, 61870127) supplemented with 10% fetal bovine serum (Gibco, 10099141), 1% penicillin-streptomycin (Gibco, 15070-063). Aspc-1 cells in exponential growth phase were seeded into 96-well plate (Corning, 3599) at density of 4×10^3/well. Cells were cultured overnight at 37° C. with 5% CO2. On the next day, cells were treated with test compound at various concentrations for 72 hours in 37° C., 5% CO2 incubator (final DMSO concentration was 0.1%). After treatment, 100 μL Cell Tier Glo (Promega, G7573) was added to every well of the cell plates and the plates were incubated at room temperature (RT) for 10 minutes. Cell growth status was measured with Cell Tier Glo (Promega, G7573) following the manufacturer's instructions. The inhibition curve was obtained with GraphPad 7.0 software using four-parameter equation.

SMILES	inhibition at 1 µM [1]	IC50 [2]	inhibition at 0.05 µM [1]	DC50 [1]	inhibition at 0.1 µM [1]
C#Cc1c(F)ccc2cc(O)cc(-c3ncc4c(N5CC6CCC(C5)N6)nc(OC5CCN(CCCCCCCCCC(=O)N[C@H](C(=O)N6C[C@H](O)C[C@H]6C(=O)NCc6ccc(-c7scnc7C)cc6)C(C)(C)C)CC5)nc4c3F)c12 [Compound 41]	> 60%	0.101 to 1 µM	–	–	–
C#Cc1c(F)ccc2cc(O)cc(-c3ncc4c(N5CC6CCC(C5)N6)nc(OCC5(CN6CCC7(CC6)CC(N6CCC(c8ccc9c(c8)n(C)c(=O)n9C8CCC(=O)NC8=O)CC6)C7)CC5)nc4c3F)c12 (stereo not drawn) [Compound 164]	–	< 0.1 µM	> 60%	< 0.01 µM	–
CCc1c(F)ccc2cc(O)cc(-c3ncc4c(N5CC6CCC(C5)N6)nc(OCC5(CN6CCC7(CC6)CC(N6CCC(c8ccc9c(C%10CCC(=O)NC%10=O)nn(C)c9c8)CC6)C7)CC5)nc4c3F)c12 (stereo not drawn) [Compound 160]	–	< 0.1 µM	> 60%	< 0.01 µM	–
C#Cc1c(F)ccc2cc(O)cc(-c3ncc4c(N5CC6CCC(C5)N6)nc(OC5CCN(CCCCCCCC(=O)N[C@H](C(=O)N6C[C@H](O)C[C@H]6C(=O)NCc6ccc(-c7scnc7C)cc6)C(C)(C)C)CC5)nc4c3F)c12 [Compound 39]	–	5 to 10 µM	–	–	–
C#Cc1c(F)ccc2cc(O)cc(-c3ncc4c(N5CC6CCC(C5)N6)nc(OC5CCN(CC(=O)N6CCC7(CC6)CC(N6CCC(c8ccc9c(C%10CCC(=O)NC%10=O)nn(C)c9c8)CC6)C7)CC5)nc4c3F)c12 (stereo not drawn) [Compound 82]	–	1 to 5 µM	–	< 0.01 µM	> 60%
CCc1c(F)ccc2cc(O)cc(-c3ncc4c(N5CC6CCC(C5)N6)nc(OCC5(CN6CCC(C(=O)N7CCC8(CC7)CC(N7CCC(c9ccc%10c(C%11CCC(=O)NC%11=O)nn(C)c%10c9)CC7)C8)CC6)CC5)nc4c3F)c12 (stereo not drawn) [Compound 156]	–	< 0.1 µM	31 to 60%	< 0.01 µM	–
C#Cc1c(F)ccc2cc(O)cc(-c3ncc4c(N5CC6CCC(C5)N6)nc(OCCCN5CCN(C(=O)CN6CCC(c7ccc8c(C9CCC(=O)NC9=O)nn(C)c8c7)CC6)CC5)nc4c3F)c12 (stereo not drawn) [Compound 33]	> 60%	0.101 to 1 µM	–	–	31 to 60%
C#Cc1c(F)ccc2cc(O)cc(-c3ncc4c(N5CC6CCC(C5)N6)nc(OCC5(CN6CCC(CCN7CCC(c8ccc9c(C%10CCC(=O)NC%10=O)nn(C)c9c8)CC7)CC6)CC5)nc4c3F)c12 (stereo not drawn) [Compound 149]	–	< 0.1 µM	> 60%	< 0.01 µM	–
CCc1c(F)ccc2cc(O)cc(-c3ncc4c(N5CC6CCC(C5)N6)nc(OC5CCN(CCCCCCCCCCC(=O)N[C@H](C(=O)N6C[C@H](O)C[C@H]6C(=O)NCc6ccc(-c7scnc7C)cc6)C(C)(C)C)CC5)nc4c3F)c12 [Compound 44]	31 to 60%	1 to 5 µM	–	–	–
C#Cc1c(F)ccc2cc(O)cc(-c3ncc4c(N5CC6CCC(C5)N6)nc(OCC5(CN6CCC(CN7CCC(c8ccc9c(C%10CCC(=O)NC%10=O)nn(C)c9c8)CC7)CC6)CC5)nc4c3F)c12 (stereo not drawn) [Compound 133]	–	< 0.1 µM	> 60%	< 0.01 µM	–
CCc1c(F)ccc2cc(O)cc(-c3ncc4c(N5CC6CCC(C5)N6)nc(OC5CCN(CCCCCCCCCC(=O)N[C@H](C(=O)N6C[C@H](O)C[C@H]6C(=O)NCc6ccc(-c7scnc7C)cc6)C(C)(C)C)CC5)nc4c3F)c12 [Compound 42]	–	1 to 5 µM	–	–	–
C#Cc1c(F)ccc2cc(O)cc(-c3ncc4c(N5CC6CCC(C5)N6)nc(OCCCN5CCN(C(=O)CCCCC(=O)N[C@H](C(=O)N6C[C@H](O)C[C@H]6C(=O)NCc6ccc(-c7scnc7C)cc6)C(C)(C)C)CC5)nc4c3F)c12 [Compound 27]	–	0.101 to 1 µM	–	–	–
C#Cc1c(F)ccc2cc(O)cc(-c3ncc4c(N5CC6CCC(C5)N6)nc(OC5CCCN(CCCCCCCCCCC(=O)N[C@H](C(=O)N6C[C@H](O)C[C@H]6C(=O)N[C@@H](C)c6ccc(-c7scnc7C)cc6)C(C)(C)C)C5)nc4c3F)c12 (stereo partly drawn) [Compound 48]	–	1 to 5 µM	–	–	–
CCc1c(F)ccc2cc(O)cc(-c3ncc4c(N5CC6CCC(C5)N6)nc(OCCCN5CCN(C(=O)CCCCC(=O)N[C@H](C(=O)N6C[C@H](O)C[C@H]6C(=O)NCc6ccc(-c7scnc7C)cc6)C(C)(C)C)CC5)nc4c3F)c12 [Compound 26]	–	1 to 5 µM	–	–	–
C#Cc1c(F)ccc2cc(O)cc(-c3ncc4c(N5CC6CCC(C5)N6)nc(OCCCN5CCN(CC(=O)N6CCN(c7ccc8c(c7)C(=O)N(C7CCC(=O)NC7=O)C8=O)CC6)CC5)nc4c3F)c12 (stereo not drawn) [Compound 59]	≤ 10%	–	–	–	≤ 10%
C#Cc1c(F)ccc2cc(O)cc(-c3ncc4c(N5CC6CCC(C5)N6)nc(OC5CCN(CC(=O)N6CCC7(CC6)CC(N6CCC(c8ccc(NC9CCC(=O)NC9=O)cc8F)CC6)C7)CC5)nc4c3F)c12 (stereo not drawn) [Compound 114]	–	–	–	< 0.01 µM	> 60%

SMILES	inhibition at 1 µM [1]	IC50 [2]	inhibition at 0.05 µM [1]	DC50 [1]	inhibition at 0.1 µM [1]
C#Cc1c(F)ccc2cc(O)cc(-c3ncc4c(N5CC6CCC(C5)N6)nc(OC5CCN(CC(=O)N6CCN(C(=O)C[C@H](NC(=O)[C@@H]7C[C@@H](O)CN7C(=O)[C@@H](NC(=O)C7(F)CC7)C(C)(C)C)c7ccc(-c8scnc8C)cc7)CC6)CC5)nc4c3F)c12 [Compound 71]	–	–	–	–	≤ 10%
C#Cc1c(F)ccc2cc(O)cc(-c3ncc4c(N5CC6CCC(C5)N6)nc(OCCCN5CCN(C(=O)CN6CCN(c7cccc8c7C(=O)N(C7CCC(=O)NC7=O)C8=O)CC6)CC5)nc4c3F)c12 (stereo not drawn) [Compound 61]	≤ 10%	–	–	–	≤ 10%
C#Cc1c(F)ccc2cc(O)cc(-c3ncc4c(N5CC6CCC(C5)N6)nc(OC5CCN(CCCCCCCCCCC(=O)N[C@H](C(=O)N6C[C@H](O)C[C@H]6C(=O)N[C@@H](C)c6ccc(-c7scnc7C)cc6)C(C)(C)C)C5)nc4c3F)c12 (stereo partly drawn) [Compound 55]	> 60%	–	–	–	> 60%
C#Cc1c(F)ccc2cc(O)cc(-c3ncc4c(N5CC6CCC(C5)N6)nc(OC5CCCN(CCCCCCCCCCC(=O)N6CCC(c7ccc8c(C9CCC(=O)NC9=O)nn(C)c8c7)CC6)C5)nc4c3F)c12 (stereo not drawn) [Compound 49]	–	1 to 5 µM	–	–	–
C#Cc1c(F)ccc2cc(O)cc(-c3ncc4c(N5CC6CCC(C5)N6)nc(OCC5(CN6CCC7(CC6)CCN(c6ccc(NC8CCC(=O)NC8=O)cc6F)CC7)CC5)nc4c3F)c12 (stereo not drawn) [Compound 110]	–	–	–	< 0.01 µM	31 to 60%
C#Cc1c(F)ccc2cc(O)cc(-c3ncc4c(N5CC6CCC(C5)N6)nc(OCCCN5CCC(C(=O)N6CCC(c7ccc8c(C9CCC(=O)NC9=O)nn(C)c8c7)CC6)CC5)nc4c3F)c12 (stereo not drawn) [Compound 72]	> 60%	–	–	–	> 60%
C#Cc1c(F)ccc2cc(O)cc(-c3ncc4c(N5CC6CCC(C5)N6)nc(OCC5(CN6CCC(N7CCN(c8ccc(NC9CCC(=O)NC9=O)cc8F)CC7)CC6)CC5)nc4c3F)c12 (stereo not drawn) [Compound 142]	–	–	31 to 60%	–	–
C#Cc1c(F)ccc2cc(O)cc(-c3ncc4c(N5CC6CCC(C5)N6)nc(OCC5(CN6CCC(N7CCC(c8ccc9c(C%10CCC(=O)NC%10=O)nn(C)c9c8)CC7)C(F)(F)C6)CC5)nc4c3F)c12 (stereo not drawn) [Compound 139]	–	–	31 to 60%	–	–
C#Cc1c(F)ccc2cc(O)cc(-c3ncc4c(N5CC6CCC(C5)N6)nc(OCCCN5CCN(CCC(=O)C6CCC(c7ccc8c(C9CCC(=O)NC9=O)nn(C)c8c7)CC6)CC5)nc4c3F)c12 (stereo not drawn) [Compound 74]	–	–	–	–	31 to 60%
C#Cc1c(F)ccc2cc(O)cc(-c3ncc4c(N5CC6CCC(C5)N6)nc(OC[C@@H]5C[C@@H](NC(=O)C6(C(=O)N7CCC(c8ccc9c(C%10CCC(=O)NC%10=O)nn(C)c9c8)CC7)CC6)CN5C)nc4c3F)c12 (stereo in doubt) [Compound 96]	–	–	–	–	11 to 30%
C#Cc1c(F)ccc2cc(O)cc(-c3ncc4c(N5CC6CCC(C5)N6)nc(OCC5(CN6CCN(CC7CCN(c8ccc9c(c8)C(=O)N(C8CCC(=O)NC8=O)C9=O)CC7)CC6)CC5)nc4c3F)c12 (stereo not drawn) [Compound 115]	–	–	–	0.011 to 0.05 µM	31 to 60%
C#Cc1c(F)ccc2cc(O)cc(-c3ncc4c(N5CC6CCC(C5)N6)nc(OCC5(CN6CCC(CC(=O)N7CCC(c8ccc9c(C%10CCC(=O)NC%10=O)nn(C)c9c8)CC7)CC6)CC5)nc4c3F)c12 (stereo not drawn) [Compound 147]	–	–	31 to 60%	–	–
CCc1c(F)ccc2cc(O)cc(-c3ncc4c(N5CC6CCC(C5)N6)nc(OCC5(CN6CCC7(CC6)CC(N6CCC(c8ccc9c(C%10CCC(=O)NC%10=O)nn(C)c9c8)CC6)C7)CC5)nc4c3F)c12 (stereo not drawn) [Compound 81]	–	–	–	–	31 to 60%
C#Cc1c(F)ccc2cc(O)cc(-c3ncc4c(N5CC6CCC(C5)N6)nc(OCC5(CN6CCC7(CC6)CC(N6CCC(c8ccc(C9CCC(=O)NC9=O)cc8)CC6)C7)CC5)nc4c3F)c12 (stereo not drawn) [Compound 166]	–	–	> 60%	–	–
C#Cc1c(F)ccc2cc(O)cc(-c3ncc4c(N5CC6CCC(C5)N6)nc(OCCCN5CCC(C(=O)N6CCC(N7CCC(c8ccc9c(C%10CCC(=O)NC%10=O)nn(C)c9c8)CC7)CC6)CC5)nc4c3F)c12 (stereo not drawn) [Compound 75]	–	–	–	< 0.01 µM	> 60%
C#Cc1c(F)ccc2cc(O)cc(-c3ncc4c(N5CC6CCC(C5)N6)nc(O[C@H]5CCN(CCCCCCCCCC(=O)N[C@H](C(=O)N6C[C@H](O)C[C@H]6C(=O)N[C@@H](C)c6ccc(-c7scnc7C)cc6)C(C)(C)C)C5)nc4c3F)c12 [Compound 83]	–	–	–	0.101 to 0.2 µM	11 to 30%

Reference: US20230321253A1, “BIFUNCTIONAL COMPOUNDS AND PHARMACEUTICAL USES THEREOF” (RISEN (SUZHOU) PHARMA TECH CO., LTD., priority 2022, published 2023)
